# Measured values: patent publication US8957064B2, “Fused pyrimidines” (Bayer Intellectual Property GmbH, priority 2009, dated 2015)
# Tests used:
# [1] = molecular target: His-tagged human recombinant kinase full-length Akt1 (Homo sapiens (Human), UniProt P31749); assay: Akt1 kinase assay (Akt1 TR-FRET assay, Biological Assay 1.0); assay type: biochemical; settings: 10 μM ATP, 1 μM biotinylated peptide substrate, 60 min at 22° C.
# Excerpt: Biological Assay 1.0: Akt1 Kinase Assay
# Akt1 inhibitory activity of compounds of the present invention may be quantified employing the Akt1 TR-FRET assay as described in the following paragraphs. His-tagged human recombinant kinase full-length Akt1 expressed in insect cells was purchased form Invitrogen (part number PV 3599). As substrate for the kinase reaction the biotinylated peptide biotin-Ahx-KKLNRTLSFAEPG (C-terminus in amide form) was used which can be purchased e.g. from the company Biosynthan GmbH (Berlin-Buch, Germany).
# (§1) For the assay 50 nl of a 100 fold concentrated solution of the test compound in DMSO was pipetted into a black low volume 384 well microtiter plate (Greiner Bio-One, Frickenhausen, Germany), 2 μl of a solution of Akt1 in assay buffer [50 mM TRIS/HCl pH 7.5, 5 mM MgCl2, 1 mM dithiothreitol, 0.02% (v/v) Triton X-100 (Sigma)] were added and the mixture was incubated for 15 min at 22° C. to allow prebinding of the test compounds to the enzyme before the start of the kinase reaction. Then the kinase reaction was started by the addition of 3 μl of a solution of adenosine-tri-phosphate (ATP, 16.7 μM=>final conc. in the 5 μl assay volume is 10 μM) and substrate (1.67 μM=>final conc. in the 5 μl assay volume is 1 μM) in assay buffer and the resulting mixture was incubated for a reaction time of 60 min at 22° C. The concentration of Akt1 in the assay was adjusted depending of the activity of the enzyme lot and was chosen appropriate to have the assay in the linear range, typical enzyme concentrations were in the range of about 0.05 ng/μl (final conc. in the 5 μl assay volume).
# (§2) The reaction was stopped by the addition of 5 μl of a solution of HTRF detection reagents (200 nM streptavidine-XL665 [Cisbio] and 1.5 nM anti-phosho-Serine antibody [Millipore, cat. #35-001] and 0.75 nM LANCE Eu-W 1024 labeled anti-mouse IgG antibody [Perkin Elmer]) in an aqueous EDTA-solution (100 mM EDTA, 0.1% (w/v) bovine serum albumin in 50 mM HEPES/NaOH pH 7.5).
# (§3) The resulting mixture was incubated 1 h at 22° C. to allow the binding of the biotinylated phosphorylated peptide to the streptavidine-XL665 and the antibodies. Subsequently the amount of phosphorylated substrate was evaluated by measurement of the resonance energy transfer from the anti-mouse-IgG-Eu-Chelate to the streptavidine-XL665. Therefore, the fluorescence emissions at 620 nm and 665 nm after excitation at 350 nm was measured in a HTRF reader, e.g. a Rubystar (BMG Labtechnologies, Offenburg, Germany) or a Viewlux (Perkin-Elmer). The ratio of the emissions at 665 nm and at […] was taken as the measure for the amount of phosphorylated substrate. The data were normalised (enzyme reaction without inhibitor=0% inhibition, all other assay components but no enzyme=100% inhibition).
# [2] = molecular target: His-tagged human recombinant kinase full-length Akt2 activated by PDK1 (Homo sapiens (Human), UniProt P31751); assay: Akt2 kinase assay (Akt2 TR-FRET assay, Biological Assay 2.0); assay type: biochemical; settings: 10 μM ATP, 1 μM biotinylated peptide substrate, 60 min at 22° C.
# His-tagged human recombinant kinase full-length Akt2 activated by PDK1, sequence (P31751 whole entry): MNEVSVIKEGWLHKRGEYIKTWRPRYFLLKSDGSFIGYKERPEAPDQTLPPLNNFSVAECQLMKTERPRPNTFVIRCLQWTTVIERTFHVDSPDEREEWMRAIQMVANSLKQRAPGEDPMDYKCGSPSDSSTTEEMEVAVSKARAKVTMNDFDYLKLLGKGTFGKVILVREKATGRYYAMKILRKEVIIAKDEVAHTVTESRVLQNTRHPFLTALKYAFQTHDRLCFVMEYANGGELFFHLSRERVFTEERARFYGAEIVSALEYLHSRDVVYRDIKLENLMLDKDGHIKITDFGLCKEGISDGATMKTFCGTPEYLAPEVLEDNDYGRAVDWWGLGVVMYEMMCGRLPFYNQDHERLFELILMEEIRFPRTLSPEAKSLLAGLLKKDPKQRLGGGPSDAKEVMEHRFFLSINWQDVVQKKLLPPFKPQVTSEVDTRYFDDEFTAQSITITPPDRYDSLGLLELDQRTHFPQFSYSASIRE
# Excerpt: Biological Assay 2.0: Akt2 Kinase Assay
# Akt2 inhibitory activity of compounds of the present invention was quantified employing the Akt2 TR-FRET assay as described in the following paragraphs.
# His-tagged human recombinant kinase full-length Akt2 expressed in insect cells and activated by PDK1 was purchased form Invitrogen (part number PV 3975). As substrate for the kinase reaction the biotinylated peptide biotin-Ahx-KKLNRTLSFAEPG (C-terminus in amide form) was used which can be purchased e.g. from the company Biosynthan GmbH (Berlin-Buch, Germany).
# as §1, with “Akt2” for “Akt1”, “0.2” for “0.05”
# as §2
# as §3, with “TR-FRET” for “HTRF”
# His-tagged human recombinant kinase full-length Akt1, sequence (P31749 whole entry): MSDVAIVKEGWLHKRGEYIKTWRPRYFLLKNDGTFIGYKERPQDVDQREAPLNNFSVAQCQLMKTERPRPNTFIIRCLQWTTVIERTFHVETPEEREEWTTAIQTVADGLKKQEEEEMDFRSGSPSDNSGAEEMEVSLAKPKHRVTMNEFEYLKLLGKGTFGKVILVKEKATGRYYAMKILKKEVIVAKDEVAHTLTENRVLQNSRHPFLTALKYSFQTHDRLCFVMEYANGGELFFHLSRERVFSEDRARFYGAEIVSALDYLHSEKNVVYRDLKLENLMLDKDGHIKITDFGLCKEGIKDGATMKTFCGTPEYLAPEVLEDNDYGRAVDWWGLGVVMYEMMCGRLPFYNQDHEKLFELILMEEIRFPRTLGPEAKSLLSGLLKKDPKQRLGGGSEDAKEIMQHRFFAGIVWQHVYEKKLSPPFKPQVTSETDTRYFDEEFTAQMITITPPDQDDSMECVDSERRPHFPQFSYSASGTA
IC50 [1],IC50 [2],Structure (SMILES)
10 nM,10 nM,"Cc1cccc(-c2nc(C3CN(Cc4ccc(-c5nc6nc(C7CC7)nn6cc5-c5ccccc5)cc4)C3)n[nH]2)n1 [Example 41.0, 2-cyclopropyl-5-(4-{3-[5-(6-methylpyridine-2-yl)-1H-[1,2,4]triazole-3-yl]-azetidine-1-ylmethyl}-phenyl)-6-phenyl-[1,2,4]triazolo[1,5-a]pyrimidine]"
5 nM,19 nM,"CCc1cnn2cc(-c3ccccc3)c(-c3ccc(CN4CC(c5n[nH]c(-c6cccc(C)n6)n5)C4)cc3)nc12 [Example 42.0, 3-ethyl-5-(4-{3-[5-(6-methyl-pyridin-2-yl)-1H-[1,2,4]triazol-3-yl]-azetidin-1-ylmethyl}-phenyl)-6-phenyl-pyrazolo[1,5-a]pyrimidine]"
22 nM,11 nM,"CC(C)Nc1nc2nc(-c3ccc(CN4CC(c5n[nH]c(-c6ccccn6)n5)C4)cc3)c(-c3ccccc3)cn2n1 [Example 43.1, isopropyl-(6-phenyl-5-{4-[3-(5-pyridin-2-yl-1H-[1,2,4]triazol-3-yl)-azetidin-1-ylmethyl]-phenyl}-[1,2,4]triazolo[1,5-a]pyrimidin-2-yl)-amine]"
7 nM,82 nM,"COC(=O)c1cnn2cc(-c3c(F)cccc3F)c(-c3ccc(CN4CCC(c5n[nH]c(-c6cccc(C)n6)n5)CC4)cc3)nc12 [Example 48.0, 6-(2,6-difluorophenyl)-5-(4-{4-[5-(6-methylpyridine-2-yl)-1H-[1,2,4]triazole-3-yl]-piperidine-1-ylmethyl}-phenyl)-pyrazolo[1,5-a]pyrimidine-3-carboxylic acid methyl ester]"
5 nM,203 nM,"COC(=O)c1cnn2cc(-c3c(F)cccc3F)c(-c3ccc(CN4CCC(c5n[nH]c(-c6ccccn6)n5)CC4)cc3)nc12 [Example 48.1, 6-(2,6-difluorophenyl)-5-(4-{4-[5-(pyridine-2-yl)-1H-[1,2,4]triazole-3-yl]-piperidine-1-ylmethyl}-phenyl)-pyrazolo[1,5-a]pyrimidine-3-carboxylic acid methyl ester]"
13 nM,37 nM,"Cc1cccc(-c2nc(C3CCN(Cc4ccc(-c5nc6nc(C)nn6cc5-c5cccc(F)c5)cc4)CC3)n[nH]2)n1 [Example 49.0, 6-(3-fluorophenyl)-2-methyl-5-(4-{4-[5-(6-methylpyridine-2-yl)-1H-[1,2,4]triazole-3-yl]-piperidine-1-ylmethyl}-phenyl)-[1,2,4]triazolo[1,5-a]pyrimidine]"
28 nM,129 nM,"Cc1nc2nc(-c3ccc(CN4CCC(c5n[nH]c(-c6ccccn6)n5)CC4)cc3)c(-c3cccc(F)c3)cn2n1 [Example 49.1, 6-(3-fluorophenyl)-2-methyl-5-{4-[4-(5-pyridine-2-yl)-1H-[1,2,4]triazole-3-yl)-piperidine-1-ylmethyl]-phenyl]-[1,2,4]triazolo[1,5-a]pyrimidine formiate]"
22 nM,97 nM,"Cc1nc2nc(-c3ccc(CN4CCC(c5n[nH]c(-c6cc(Cl)ccn6)n5)CC4)cc3)c(-c3ccc(F)cc3F)cn2n1 [Example 50.0, 5-(4-{4-[5-(4-chloropyridine-2-yl)-1H-[1,2,4]triazole-3-yl]-piperidine-1-ylmethyl}-phenyl) 6-(2,4-difluorophenyl)-2-methyl-[1,2,4]triazolo[1,5-a]pyrimidine]"
62 nM,108 nM,"Cc1cccc(-c2nc(C3CCN(Cc4ccc(-c5nc6nc(C)nn6cc5-c5ccc(F)cc5F)cc4)CC3)n[nH]2)n1 [Example 50.1, 6-(2,4-difluorophenyl)-2-methyl-5-(4-{4-[5-(6-methylpyridine-2-yl)-1H-[1,2,4]triazole-3-yl]-piperidine-1-ylmethyl}-phenyl)-[1,2,4]triazolo[1,5-a]pyrimidine]"
